Results on one substance are retold here after patent US20130266557A1, “METHODS FOR TREATMENT OF A SARCOMA USING AN EPIMETABOLIC SHIFTER (COENZYME Q10)” (priority 2009, published 2013).

The test system of assay [1] is NCIES0808 cells. The assay can be described thus: Western blot analysis. In kind it is cell-based, human. Here is the method: Cells were grown and treated with CoQ10 at 50 uM and 100 uM, along with the proper controls. The total cell lysates (as prepared above) were processed and evaluated by Western blot analysis. Proteins from each treatment group were resolved on SDS-PAGE and transferred onto PVDF membranes. They were then hybridized with antibodies.
Either 5 or 10 μg of protein was assayed per sample by immunoblotting. Proteins were separated on 10-20% Tris-HCl gels or 4-12% Bis-Tris gels, transferred via electrophoresis to PVDF membranes and blocked using a 5% GE/Amersham ECF blocker and TBST solution prior to incubation with primary antibodies. The primary antibodies were incubated overnight at 4 degrees C. in a 5% BSA and TBST solution. Secondary antibodies were incubated for one hour at room temperature. All antibodies were purchased from commercial vendors. Antibodies were used at the manufacturers' recommended dilution, with the control βActin at a dilution of 1:5000. Blots were developed using GE/Amersham ECF reagent, and results were quantified using the Fuji FL-5100 laser scanner and Bio-Rad Quantity One densitometry analysis software. All blots were also probed for and normalized to their respective βActin expression.
NCIES0808 cells treated for 24 hours with 50 or 100 μM Q10 were subjected to Western blot analysis and were analyzed to identify protein-level changes relative to the control media samples.
Protein obtained from the treated cells was evaluated by Western blot analysis against an antibody for Angiotensin-converting enzyme (ACE) (FIG. 4A), an antibody for Caspase 3 (FIG. 4B), an antibody for GARS (FIG. 4C), an antibody for Matrix Metalloproteinase 6 (MMP-6) (FIG. 4D) and a series of antibodies for Neurolysin (NLN) (FIGS. 4E-F).

For assay [2], the system named is mitochondrial preparation of NICES0808 sample. Description: 2-D gel analysis of mitochondrial preparation. The class given is cell-based, human. Particulars: direction not given. The procedure:
NCIES0808 cells were treated with Q10 separately in larger volumes for isolation of sufficient mitochondria for proteomic analysis. Cells were treated with media, 50 uM Q10 or 100 uM Q10 for 0, 3, 6, 24 and 48 hours in T175 flasks. Two flasks were grown for each condition and cells from the two were pooled during harvesting. After the required treatment time, cells were trypsinized and washed twice in ice cold TBS. Pelleted cells were snap frozen in liquid nitrogen and frozen at −80° C. until mitochondria were isolated. Mitochondria were isolated using manufacturers instructions available with the MitoProfile Mitosciences Isolation Kit for Cultured Cells (Mitosciences Inc, Eugene, Oreg.).
Before isoelectric focusing (IEF), samples were solubilized in 40 mM Tris, 7 M urea, 2 M thiourea, and 1% C7 zwitterionic detergent, reduced with tributylphosphine, and alkylated with 10 mM acrylamide for 90 min at room temperature. After the sample was run through a 10-kDa cutoff Amicon Ultra device with at least 3 volumes of the resuspension buffer, consisting of 7 M urea, 2 M thiourea, and 2% CHAPS to reduce the conductivity of the sample. One hundred micrograms of protein were subjected to IEF on 11-cm pH 3 to 10, pH 4 to 7 or pH 6 to 11 immobilized pH gradient strips (GE, Amersham, USA) to 100,000 volts hour. After IEF, immobilized pH gradient strips were equilibrated in 6 M urea, 2% SDS, 50 mM Tris-acetate buffer, pH 7.0, and 0.01% bromphenol blue and subjected to SDS-polyacrylamide gel electrophoresis on 8 to 16% Tris-HCl Precast Gel, 1 mm (Bio-Rad, USA). The gels were run in duplicate. They were fixed, stained in SYPRO Ruby, 80 mL/gel (Invitrogen, USA) and imaged on Fuji FLA-5100 laser scanner.
A mitochondrial preparation of NICES0808 sample was also analyzed for proteins and below, in Table 8, is the list of proteins the amount of which was modulated following treatment with CoQ10.

Assay [3] concerns NCIES0808 cells. The assay can be described thus: Real-time PCR, Human Angiogenesis Arrays. The class given is cell-based. Particulars: 100 uM Q10. The procedure:
NCIES0808 cells were plated in T25 flasks at a density of 2×10^6 cells per flask in media or media containing 50 uM/100 uM Q10. All treatment groups were run in triplicate. Cells were harvested at 0, 3, 6, 24 or 48 hours. Pictures were taken to examine cell morphology before harvesting. To harvest cells, media was removed but saved to be able to collect floating apoptotic cells. Cells were trypsinized with 1 ml of trypsin-EDTA and the enzyme action was stopped by addition of 4 ml complete media. Trypsinized cells were added to the appropriate tube containing the media with dead cells. Cells were centrifuged at 1200 rpm for 5 minutes and media was aspirated leaving behind the cell pellet for RNA extraction. RNA isolation from cell pellets was carried out with the RNeasy kit (Qiagen, Valencia Calif.) according to the manufacturer's instructions. RNA samples were eluted from spin columns in water; absorbance was measured at 260 nm, 230 nm and 280 nm. The purity of RNA was evaluated by the 260/230 and 280/230 ratios. The concentration of RNA in all of the samples was calculated from absorbance values at […]. First strand cDNA was synthesized from 0.5 ug of all RNA samples using instructions provided with the First strand kit (SABiosciences, Frederick, Md.). The synthesized first strand from a sample was dispensed equally in a PCR array plate containing primers within a pathway (Angiogenesis, Diabetes and Mitochondria) (SABiosciences Corporation, Frederick, Md.). The arrays were amplified with real time PCR using the SYBR green detection methods using manufacturer approved protocols. The ct values from each of the samples were normalized to three housekeeping genes and fold regulation of Q10 treated groups was compared to time matched controls from cells grown in regular media was calculated.
The experiments described in this example were performed to test the overall hypothesis that Q10 would have an impact on expression of multiple genes in Ewing's sarcoma cells. The mRNA from NCIES0808 cells treated with 50 μM or 100 μM Q10 for various times was evaluated by RT-PCR against a panel of target proteins involved in human diabetes, human angiogenesis or human mitochondrial pathways.
Ct values obtained from a real time thermocycler were loaded onto the analysis tool on the SABiosciences website for calculation of fold regulation compared to cells with media. The genes that are included in the tables below are those that show a p value of close to 0.05.

Where [4] appears, read: 24 hours with 50 or 100 μM Q10, relative to control media.

As to Coenzyme Q10 [CoQ10], in assay [1] (24 hours of treatment with 100 μM Q10), the “Caspase 3 protein level by Western blot” value is “marked downregulation”. Further, in assay [1] (setting [4]), the “Angiotensin-converting enzyme (ACE) protein level by Western analysis” value is “downregulated”, the “Caspase 3 protein level by Western analysis” value is reported as “downregulated”, the “GARS protein level by Western analysis” value is “downregulated” and the “Matrix Metalloproteinase 6 protein level by Western analysis” value is listed as “downregulated”. The “Neurolysin protein level by Western analysis” value in assay [1] (setting [4]) is “downregulated”. For the same substance, the “Proteins Modulated in NCIES0808 cells treated with CoQ10 (value = protein)” value (“Proteins Modulated” below) in assay [2] (gel spot 37) is reported as “eukaryotic translation elongation factor 1 beta 2”. Also, in assay [2] (gel spot 108), the “Proteins Modulated” value is “retinoblastoma binding protein 4 isoform A”. Moreover, the “Proteins Modulated” value in assay [2] (gel spot 172) is “cytoplasmic dynein IC-2”. Also, the “Proteins Modulated” value in assay [2] (gel spot 227) was “chaperonin containing TCP1, subunit 3”. In addition, in assay [2] (gel spot 1000), the “Proteins Modulated” value was “TAR DNA binding protein”. In assay [3] (3 hours), the “Pattern of regulation, ANGPTL3 mRNA” value is reported as “Down regulation at 3 hours with 100 uM Q10”; the “Pattern of regulation, CCL2 mRNA” value is given as “Down regulation at 3 hours with 100 uM Q10”; the “Pattern of regulation, CDH5 mRNA” value is “Down regulation at 3 and 24 hours with 100 uM Q10”; the “Pattern of regulation, CXCL1 mRNA” value was “Down regulation at 3 hours with 100 uM Q10”. The “Pattern of regulation, CXCL3 mRNA” value in assay [3] (3 hours) is “Down regulation at 3 hours with 100 uM Q10”. Besides, the “Pattern of regulation, LAMA5 mRNA” value in assay [3] (6 hours) is reported as “Up regulation at 6 hours with 100 uM Q10”. The “Pattern of regulation, CDH5 mRNA” value in assay [3] (24 hours) is “Down regulation at 3 and 24 hours with 100 uM Q10”. Also, the “Pattern of regulation, PXLDC1 mRNA” value in assay [3] (48 hours) is “Up regulation at 48 hours with 100 uM Q10”.
